Test results as given in US9480695B2, “Methods for inducing orexin neurons and agent for treating narcolepsy or eating disorder” (THE UNIVERSITY OF TOKYO, priority 2011, dated 2016).

Legend:
Format in all cases: cell-based
[1] = tested on: human iPS cell strain 201B7; test: Hcrt expression with ManNAc plus Sirt inhibitor and Ogt inhibitor, neural differentiation from human iPS cell, RT-PCR; conditions: ManNAc 1.0 mM from 0th day, EX-527 50 nM and/or BADGP 5 mM on 14th day, collected 20th day; FIG. 10
Protocol: A human iPS cell strain 201B7 (HSP0001) was obtained from Riken BioResource Center via National BioResource Project (MEXT, Japan). The human iPS cell was maintained on a feeder layer of a mitomycin C-treated STO/Neo resistant/LIF (SNL) feeder cell in a primate ES medium (ReproCELL) complemented with 5 ng/mL recombinant human bFGF (Wako). The human iPS cell was co-cultured with PA6 for 20 days, for differentiation induction into a nerve with a SIDA and BMP4 system. From 7th day, 5 nM BMP4 was complemented. A detailed protocol of differentiation induction into a nerve cell is shown in the lower column of FIG. 11. From the initiation of differentiation culturing (0th day), ManNAc was added to a neural differentiation medium so that the concentration became 1.0 mM, and on 7th, 10th and 14th days of differentiation culturing, the medium was exchanged. In addition, from 7th day of differentiation culturing, 5 nM recombinant human BMP4 (Wako) was added. On 14th day of differentiation culturing, EX-527 (SIGMA-ALDRICH) was added to a neural differentiation medium so that the concentration became 50 nM, or BADGP (SIGMA-ALDRICH) was added to a neural differentiation medium so that the concentration became 5 mM, and on 20th day of differentiation culturing, cells were collected and subjected to RT-PCR. The conditions of RT-PCR are the same as those of Example 1.

[2] = tested on: Mouse ES cells (J1 strain); test: Hcrt expression with ManNAc plus Sirt inhibitor or Ogt inhibitor, neural differentiation from mouse ES cell, RT-PCR; conditions: ManNAc 1.0 mM from 0th day, EX-527 50 nM on 7th day, collected 10th day; FIG. 8
Protocol: According to the same manner as that described in Example 1, mouse ES cells (J1 strain) were cultured for 10 days for differentiation induction into a nerve cell. A protocol of inducing differentiation into a nerve cell is shown in the upper column of FIG. 11. From the initiation of differentiation culturing (0th day), ManNAc was added to a neural differentiation medium so that the concentration became 1.0 mM, and the medium was exchanged on 4th and 7th days of differentiation culturing. In addition, from 4th day of differentiation culturing, 5 nM recombinant human BMP4 (Wako) was added. On 7th day of differentiation culturing, EX-527 (SIGMA-ALDRICH) was added to a neural differentiation medium so that the concentration became 50 nM or BADGP (SIGMA-ALDRICH) was added to a neural differentiation medium so that the concentration became 1 or 5 mM, and on 10th day of differentiation culturing, cells were collected and subjected to RT-PCR. The conditions of RT-PCR are the same as those of Example 1.

[3] = tested on: Mouse ES cells (J1 strain); test: Induction of Hcrt expression in neural differentiation from mouse ES cells, SDIA differentiation culture system, RT-PCR; conditions: for Expression of Hcrt with changed time of addition: 1.0 mM, addition time varied, FIG. 3; for Expression of an orexin gene (Hcrt): added from initiation of differentiation culturing at 0.2 and 1.0 mM, cells collected on 10th day, FIG. 2
Protocol: Mouse ES cells (J1 strain) which had been maintained in a medium for an ES cell [DMEM (Wako) added with 15% FBS (Biowest), 1 mM sodium pyruvate (Invitrogen), […] (Invitrogen), 2 mM L-glutamine (Invitrogen), 1 mM non essential amino acid (Invitrogen), 50 U/ml penicillin/50 μg/ml streptomycin (Invitrogen), 2000 U leukemia inhibitory factor (Chemicon, CA)] were seeded on a 10 cm culture dish so that the cell count became 1×10^5 cells per culture dish on which PA6 stromal cells had been seeded in advance, and differentiation induction was performed in a medium for neural differentiation [Glasgow MEM (Invitrogen) added with 10% KSR (Invitrogen), […] (Invitrogen), 1 mM non essential amino acid (Invitrogen), 50 U/ml penicillin/50 μg/ml streptomycin (Invitrogen)] for 10 days. On 4th and 7th days of differentiation culturing, the medium was exchanged. In addition, from 4th day of differentiation culturing, 5 nM recombinant human BMP4 (Wako) was added (FIG. 1). On 10th day of differentiation culturing, cells were collected and pelletized by a centrifugation operation to remove the culture medium. Thereafter, the pellets were immediately frozen in liquid nitrogen and stored at −80° C. until use.
The total RNA was extracted from the collected cells using RNeasy plus Mini Kit (QIAGEN). Then, a reverse transcription reaction was performed in a reaction liquid containing 1 μg of the total RNA, and Oligo (dT) using SuperScript III First Strand Synthesis System (Invitrogen) to synthesize a cDNA.
A PCR reaction was performed on a 10 μl scale, 1 U of LA-Taq DNA Polymerase (Takara) was added to 0.5 μl of a cDNA, 5 μl of 2×GC Buffer I, each 200 μM of dNTP, 1.5 mM MgCl2, and each primer having a final concentration of 0.2 μM, thermal denaturation was performed at 95° C. for 3 minutes, and the reaction was performed under the condition of (30 seconds at 95° C., 30 seconds at 55° C., and 30 seconds at 72° C.)×35 cycles (20 cycles in the case of Actb). The primers used are shown below.
Each PCR product was electrophoresed on a 2% agarose gel, stained with ethidium bromide, and a band was observed by UV irradiation.

[4] = tested on: Mouse ES cells (J1 strain); test: Hcrt expression in mouse ES cells, SFEB/gfCDM differentiation culture system, RT-PCR; conditions: 1.0 mM from 7th day of differentiation culturing; cells collected on 25th day; FIG. 5
Protocol: Mouse ES cells (J1 strain) which had been maintained in a medium for an ES cell were seeded on a 96-well low adhering round-bottom culture dish (Nunc) so that the cell count became 10,000 cells per well, and cultured with gfCDM [IMDM/F12 (Invitrogen) added with 5 mg/ml BSA (SIGMA), 450 μM Monothioglycerol (Wako), 1× chemically defined lipid concentrate (Invitrogen), 50 U/ml penicillin/50 μg/ml streptomycin] for 7 days. The cells were cultured in 150 μl of a medium per well. On 7th day of differentiation culturing, the medium was exchanged with a DFK medium [DMEM/F12 (Invitrogen) added with 7 g/1 glucose, 10% KSR, 50 U/ml penicillin/50 μg/ml streptomycin], and on 10th day, half the amount of the medium was exchanged with a DFNB medium [7 g/1 glucose, 1×N2 (Wako), 1×B27 (Invitrogen)] containing 10 ng/ml CNTF. On 13th day of culturing, cells were detached with 0.05% trypsin/EDTA, seeded on a culture dish (Falcon) which had been treated with poly-D-lysine/laminin so that the cell count became 4.8×10^6 cells per 10 cm culture dish, and cultured in a DFNB medium containing 10% FBS, 10 ng/ml CNTF, 50 ng/ml BDNF and 50 ng/ml NT3. The medium was exchanged every 3 days. On 25th day of differentiation culturing, cells were collected and pelletized by a centrifugation operation to remove the culture medium. Thereafter, the pellets were immediately frozen in liquid nitrogen, and stored at −80° C. until use.
The analysis was performed by the same method as that of Example 1.

Row | Structure (SMILES) | Expression of an orexin gene (Hcrt) [1] | Expression of an orexin gene (Hcrt) [2] | Expression of Hcrt with changed time of addition [3] | Expression of an orexin gene (Hcrt) [3] | Expression of Hcrt [4]
1 | NC(=O)C1CCCc2c1[nH]c1ccc(Cl)cc21 (stereo not shown) [EX-527, 6-chloro-2,3,4,9-tetrahydro-1H-carbazole-1-carboxamide, reference compound] | recognized in a ManNAc-added section and an EX-527-added section to the same extent | expression of Hcrt was recognized |  |  | 
2 | CC(=O)N[C@H]1C(O)O[C@H](CO)[C@@H](O)[C@@H]1O (stereo partly drawn) [GlcNAc, N-acetyl-D-glucosamine] |  |  | observed only in a ManNAc-added section | recognized only in a ManNAc-added section | 
3 | CC(=O)N[C@H]1[C@H]([C@H](O)[C@H](O)CO)OC(O)(C(=O)O)C[C@@H]1O (stereo partly shown) [Neu5Ac, N-acetylneuraminic acid] |  |  | observed only in a ManNAc-added section | recognized only in a ManNAc-added section | expression of Hcrt was recognized
